In PMC10584496, “Brazilin from Caesalpinia sappan L. as a Proprotein Convertase Subtilisin/Kexin Type 9 (PCSK9) Inhibitor: Pharmacophore-Based Virtual Screening, In Silico Molecular Docking, and In Vitro Studies” (Advances in Pharmacological and Pharmaceutical Sciences, 2023) one finds IC50 data, which are given here for one molecule.

Structures are written as SMILES.

The test deals with T1, Proprotein convertase subtilisin/kexin type 9 (PCSK9) (Homo sapiens, UniProt Q8NBP7).
T1 construct: His-tagged recombinant PCSK9 wild type
T1 sequence (Q8NBP7 31-152): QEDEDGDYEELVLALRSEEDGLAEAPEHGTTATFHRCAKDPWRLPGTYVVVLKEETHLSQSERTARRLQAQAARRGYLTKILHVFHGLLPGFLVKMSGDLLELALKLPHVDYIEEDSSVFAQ
T1 sequence (Q8NBP7 153-692): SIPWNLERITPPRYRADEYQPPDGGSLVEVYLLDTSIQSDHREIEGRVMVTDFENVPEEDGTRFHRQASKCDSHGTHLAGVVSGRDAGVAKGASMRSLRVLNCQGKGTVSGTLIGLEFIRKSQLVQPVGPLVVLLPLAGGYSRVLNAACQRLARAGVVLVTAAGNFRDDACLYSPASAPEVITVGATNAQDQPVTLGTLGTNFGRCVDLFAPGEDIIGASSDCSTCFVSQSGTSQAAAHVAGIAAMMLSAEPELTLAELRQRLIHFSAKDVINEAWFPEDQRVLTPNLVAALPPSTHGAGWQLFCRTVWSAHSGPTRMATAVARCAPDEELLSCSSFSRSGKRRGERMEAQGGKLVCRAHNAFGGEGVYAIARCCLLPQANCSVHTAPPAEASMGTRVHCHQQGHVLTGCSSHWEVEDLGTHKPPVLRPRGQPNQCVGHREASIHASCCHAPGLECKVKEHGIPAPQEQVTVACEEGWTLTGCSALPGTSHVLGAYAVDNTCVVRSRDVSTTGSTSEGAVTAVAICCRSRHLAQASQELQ
T1 sequence (P01130 22-860 partner): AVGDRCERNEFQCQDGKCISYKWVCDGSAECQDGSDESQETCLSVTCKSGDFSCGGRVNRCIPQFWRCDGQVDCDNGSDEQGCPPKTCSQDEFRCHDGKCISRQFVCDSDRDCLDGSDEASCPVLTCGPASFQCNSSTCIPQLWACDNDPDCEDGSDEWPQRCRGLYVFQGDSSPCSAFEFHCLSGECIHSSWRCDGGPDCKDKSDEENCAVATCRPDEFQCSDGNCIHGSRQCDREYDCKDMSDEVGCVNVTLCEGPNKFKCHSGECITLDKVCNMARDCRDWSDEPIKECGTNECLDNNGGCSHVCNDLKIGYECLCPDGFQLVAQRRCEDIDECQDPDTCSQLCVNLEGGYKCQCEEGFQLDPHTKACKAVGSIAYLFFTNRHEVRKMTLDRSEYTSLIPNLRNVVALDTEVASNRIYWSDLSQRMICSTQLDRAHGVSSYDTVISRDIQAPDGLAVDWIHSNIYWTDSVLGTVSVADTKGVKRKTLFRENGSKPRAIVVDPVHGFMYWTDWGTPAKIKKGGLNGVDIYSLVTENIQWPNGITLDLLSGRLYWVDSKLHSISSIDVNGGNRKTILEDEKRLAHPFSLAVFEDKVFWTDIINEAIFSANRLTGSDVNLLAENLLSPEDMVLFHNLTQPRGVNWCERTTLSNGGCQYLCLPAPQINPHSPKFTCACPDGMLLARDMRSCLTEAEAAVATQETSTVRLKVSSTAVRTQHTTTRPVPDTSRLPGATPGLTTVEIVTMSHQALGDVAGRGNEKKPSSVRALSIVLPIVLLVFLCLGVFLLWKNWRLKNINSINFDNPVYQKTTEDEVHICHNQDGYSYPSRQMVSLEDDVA
Description: CircuLex PCSK9-LDLR in vitro binding assay kit (plate-based, ELISA-type). Background: ELISA stands for enzyme-linked immunosorbent assay.

As a reminder, the IC50 is the concentration that inhibits the measured activity by half.

Consider `Oc1ccc2c(c1)OC[C@]1(O)Cc3cc(O)c(O)cc3[C@H]21` [brazilin], for which the IC50 was determined as 2190 nM.
